According to patent publication US8883745B2, “C—glycolipids with enhanced Th-1 profile” (New York University, priority 2006, dated 2014):

Legend:
IFN-γ = IFN-γ levels in sera upon i.v. glycolipid administration to C57BL/6 mice (ELISA); format: in vivo; set-up: IFN-γ levels, test 1 / IFN-γ levels, test 2 / IFN-γ levels, average / IFN-γ levels, Total / IFN-γ (B6): unit not given here; details: for IFN-γ/IL-4 (B6): C57BL/6, ratio calculated from Tables 1-6; for IFN-γ levels, average / IFN-γ levels, test 1 / IFN-γ levels, test 2 / IFN-γ levels, Total: C57BL/6, serum; for IFN-γ levels, Total: total over hours 0-72
Method: (§1) Five- to six-week-old female C57BL/6 mice and BALB/c mice were purchased from Taconic. Each glycolipid was stored at 1 mg/ml in 100% DMSO. Mice were injected intravenously with 1 μg of each glyocolipid diluted in 200 μL sterile phosphate buffered saline (PBS). At indicated time points, sera were collected from each animal, and concentrations of IFN-γ, IL-4, and IL-12 in the sera were evaluated by enzyme-linked immunosorbent assay (ELISA). Serum concentrations of IFN-γ, IL-4, and IL-12 were evaluated using an ELISA kit (eBioscience, San Diego, Calif.). Briefly, 96 well flat-bottom ELISA plates (NUNC) were coated with capture antibody according to the manufacture's recommendation and incubated overnight at 4° C. The plates were washed with PBS+0.05% Tween 20 (PBS-T), then incubated with manufacturer provided blocking solution for 1 hr at room temperature to block non-specific binding sites. After washing with PBS-T, sera diluted 1:10 was added to the wells and incubated for 2 hrs at room temperature. Plates were then incubated at room temperature for 1 hr with biotintylated detection antibody, washed, incubated with avidin conjugated to horse radish peroxidase (HRP) for 30 min at room temperature, washed, and finally incubated with tetramethylbenzidine substrate solution in the dark for 10 minutes at room temperature. The antibodies, avidin-HRP, and substrate solution were all diluted according to the manufacture's recommendation. Reactions were stopped with 2.0N sulfuric acid and the cytokine concentration in each well was determined by comparing the absorbance at 450 nm in each well to known standards. The levels of Th1- and Th2-type cytokines were determined in two different genetic backgrounds, i.e., in C57BL/6 mice and BALB/c mice. The following compounds were administered: A=compound (A-1 trans-conformer), B=compound (A-2), C=compound (A-3), D=compound (A-4), E=compound (A-5), Z=control (PBS alone), CRONY=α-C-GalCer, KRN=α-GalCer, GCK109 (A-1 trans-conformer), GCK151 (A-1 cis-conformer), GCK152 (A-7). The levels of cytokines were measured at 0, 2, 6, 12, 24, 48, and 72 hours after the compound administration. The levels of Th1-type cytokines IFN-γ and IL-12 are summarized in FIGS. 2A-C and 3A-C, respectively. Table 7 provides IFN-γ/IL-4 and IL-12/IL-4 ratios for various compounds, which can be used as indicators of their ability to selectively stimulate Th1-type immune responses.

IL-4 = IL-4 levels in sera upon i.v. glycolipid administration to C57BL/6 mice (ELISA); format: in vivo; set-up: unit not given here; details: for IL-4 level, Total: total over hours 0-72
Method: as §1

CCCCCCCCCCCCCCCCCC/C=C/CCCCCCCCC(=O)N[C@@H](/C=C/[C@H]1O[C@H](CO)[C@H](O)[C@H](O)[C@H]1O)[C@H](O)[C@H](O)CCCCCCCCCCCCCC [A-1]
IFN-γ/IL-4 (B6) (IFN-γ): 12
IFN-γ levels, average (IFN-γ; hour 0): 31
IFN-γ levels, test 1 (IFN-γ; hour 0): 31
IFN-γ levels, test 2 (IFN-γ; hour 0): 31
IFN-γ levels, average (IFN-γ; hour 2): 281
IFN-γ levels, test 1 (IFN-γ; hour 2): 226
IFN-γ levels, test 2 (IFN-γ; hour 2): 336
IFN-γ levels, average (IFN-γ; hour 6): 1147.5
IFN-γ levels, test 1 (IFN-γ; hour 6): 1172
IFN-γ levels, test 2 (IFN-γ; hour 6): 1123
IFN-γ levels, average (IFN-γ; hour 12): 4323
IFN-γ levels, test 1 (IFN-γ; hour 12): 4093
IFN-γ levels, test 2 (IFN-γ; hour 12): 4553
IFN-γ levels, average (IFN-γ; hour 24): 11150
IFN-γ levels, test 1 (IFN-γ; hour 24): 10000
IFN-γ levels, test 2 (IFN-γ; hour 24): 12300
IFN-γ levels, average (IFN-γ; hour 48): 400.5
IFN-γ levels, test 1 (IFN-γ; hour 48): 366
IFN-γ levels, test 2 (IFN-γ; hour 48): 435
IFN-γ levels, average (IFN-γ; hour 72): 151
IFN-γ levels, test 1 (IFN-γ; hour 72): 124
IFN-γ levels, test 2 (IFN-γ; hour 72): 178
IFN-γ levels, Total (IFN-γ): 17485
IL-4 level, average (IL-4; hour 0): 46
IL-4 level, test 1 (IL-4; hour 0): 46
IL-4 level, test 2 (IL-4; hour 0): 46
IL-4 level, average (IL-4; hour 2): 1088
IL-4 level, test 1 (IL-4; hour 2): 914
IL-4 level, test 2 (IL-4; hour 2): 1262
IL-4 level, average (IL-4; hour 6): 109
IL-4 level, test 1 (IL-4; hour 6): 90
IL-4 level, test 2 (IL-4; hour 6): 128
IL-4 level, average (IL-4; hour 12): 55
IL-4 level, test 1 (IL-4; hour 12): 44
IL-4 level, test 2 (IL-4; hour 12): 66
IL-4 level, average (IL-4; hour 24): 56.5
IL-4 level, test 1 (IL-4; hour 24): 57
IL-4 level, test 2 (IL-4; hour 24): 56
IL-4 level, average (IL-4; hour 48): 44
IL-4 level, test 1 (IL-4; hour 48): 47
IL-4 level, test 2 (IL-4; hour 48): 41
IL-4 level, average (IL-4; hour 72): 88
IL-4 level, test 1 (IL-4; hour 72): 61
IL-4 level, test 2 (IL-4; hour 72): 115
IL-4 level, Total (IL-4): 1487

CCCCCCCCCCCCCCCCCCCCCCCCCCCCC(=O)N[C@@H](/C=C/[C@H]1O[C@H](CO)[C@H](O)[C@H](O)[C@H]1O)[C@H](O)[C@H](O)CCCCCCCCCCCCCC [A-2, (3S,4S,5R)-1-C-(α-D-galactopyranosyl)-3-(N-nonacosanoylamino)-4,5-nonadec-(1,2-E)-enediol]
IFN-γ/IL-4 (B6) (IFN-γ): 16
IFN-γ levels, average (IFN-γ; hour 0): 31
IFN-γ levels, test 1 (IFN-γ; hour 0): 31
IFN-γ levels, test 2 (IFN-γ; hour 0): 31
IFN-γ levels, average (IFN-γ; hour 2): 138.5
IFN-γ levels, test 1 (IFN-γ; hour 2): 138
IFN-γ levels, test 2 (IFN-γ; hour 2): 139
IFN-γ levels, average (IFN-γ; hour 6): 944.5
IFN-γ levels, test 1 (IFN-γ; hour 6): 955
IFN-γ levels, test 2 (IFN-γ; hour 6): 934
IFN-γ levels, average (IFN-γ; hour 12): 2932
IFN-γ levels, test 1 (IFN-γ; hour 12): 2427
IFN-γ levels, test 2 (IFN-γ; hour 12): 3437
IFN-γ levels, average (IFN-γ; hour 24): 8415
IFN-γ levels, test 1 (IFN-γ; hour 24): 7023
IFN-γ levels, test 2 (IFN-γ; hour 24): 9807
IFN-γ levels, average (IFN-γ; hour 48): 464
IFN-γ levels, test 1 (IFN-γ; hour 48): 424
IFN-γ levels, test 2 (IFN-γ; hour 48): 504
IFN-γ levels, average (IFN-γ; hour 72): 100.5
IFN-γ levels, test 1 (IFN-γ; hour 72): 87
IFN-γ levels, test 2 (IFN-γ; hour 72): 114
IFN-γ levels, Total (IFN-γ): 13027
IL-4 level, average (IL-4; hour 0): 46
IL-4 level, test 1 (IL-4; hour 0): 46
IL-4 level, test 2 (IL-4; hour 0): 46
IL-4 level, average (IL-4; hour 2): 443
IL-4 level, test 1 (IL-4; hour 2): 286
IL-4 level, test 2 (IL-4; hour 2): 600
IL-4 level, average (IL-4; hour 6): 110
IL-4 level, test 1 (IL-4; hour 6): 95
IL-4 level, test 2 (IL-4; hour 6): 125
IL-4 level, average (IL-4; hour 12): 56.5
IL-4 level, test 1 (IL-4; hour 12): 45
IL-4 level, test 2 (IL-4; hour 12): 68
IL-4 level, average (IL-4; hour 24): 52
IL-4 level, test 1 (IL-4; hour 24): 46
IL-4 level, test 2 (IL-4; hour 24): 58
IL-4 level, average (IL-4; hour 48): 56
IL-4 level, test 1 (IL-4; hour 48): 60
IL-4 level, test 2 (IL-4; hour 48): 52
IL-4 level, average (IL-4; hour 72): 61.5
IL-4 level, test 1 (IL-4; hour 72): 59
IL-4 level, test 2 (IL-4; hour 72): 64
IL-4 level, Total (IL-4): 826
